Measured values published in patent publication US8846768B2, “Use of compounds isolated from Euphorbia neriifolia for treating cancer and/or thrombocytopenia” (Mackay Memorial Hospital, priority 2012, dated 2014).

Columns and labels:
[1] = Body weight of tumor-bearing treated animals; conditions: EN 22 alone, FIG. 2
Procedure: (§7) Athymic BALB/c-nu nude mice (4 weeks old) were obtained from the National Laboratory Animal Center (Taipei, Taiwan) and were kept in a pathogen-free facility with ad libitum access to water and laboratory chow. A solution of 81T/VGH cells was injected into the subcutaneous tissue to establish a xenograft tumor.
Tumor sizes were measured using calipers, and tumor volume was calculated using the formula: volume=width^2×length×0.52.
(§8) Mice were inoculated with esophageal squamous tumor cells in accordance with the procedures described above. For in vivo therapy, animals were given 2 mg/Kg cisplatin intraperitoneally, in the presence or absence of 20 mg/Kg EN 22, which was given orally, for a period of at least 4 weeks. Tumor size, body weight, white blood cell count, and liver function of each animal were then measured respectively at the indicated time.

[2] = system: human esophageal squamous 81T/VGH xenograft tumor; assay: Tumor size in animals grafted with 81T/VGH cancer cells; format: in vivo, Athymic BALB/c-nu nude mice; conditions: FIG. 1
Procedure: For inoculated tumor model, 1×10^5 81T/VGH cells were injected subcutaneously to lab animals to generate s.c. tumors (5×10^5 cells per injection) on day 1. The needle hole was sealed with an electric coagulator (Aaron, Petersburg, Fla., USA) immediately after the withdrawal of the needle to avoid leakage of the injected substance. The incision was subsequently sutured.
Results are depicted in FIGS. 1 to 3, respectively.

[3] = system: human esophageal squamous 81T/VGH cells; assay: MTT cell viability, growth inhibition on esophageal squamous cells; format: cell-based; conditions: for Inhibition (%): 81T/VGH cells; for ex vivo growth of esophageal cancerous cells inhibited: time not stated
Procedure: (§1) Cell lines used in the present disclosure include human chronic is myelogenous leukemia (CML) cell line K562, erythroleukemia HEL cells, human pancreatic carcinoma epithelial-like cell line PANC-1, human esophageal squamous cell carcinoma line 81T/VGH, human esophageal adenocarcinoma line BE-3 and human esophageal adenocarcinoma cell line SKGT4. Each cell lines were cultured and maintained in Dulbecco's modified Eagle media (DMEM) supplemented with 10% fetal calf serum, 100 IU/ml penicillin, 100 μg/ml streptomycin, and 2 mM glutamine in 5% CO2 at 37° C.
(§2) The absorbance of the solution at 570 nm was measured by spectrophotometer.
Effects of the compounds of formula (I) of this disclosure, particularly, EN 22, EN 24, and EN 25, on 81T/VGH cells were assessed by cell viability analysis in accordance with procedures described above.

[4] = system: human chronic myelogenous leukemia (CML) K562 cells; assay: MTT cell viability, growth inhibition on chronic myelogenous leukemia cells; format: cell-based; conditions: for Inhibition (%): 10 μM, K562 cells; for ex vivo growth of CML cells suppressed: about 10 μM, time not stated
Procedure: as §1, §2
Effects of the compounds of formula (I) or (II) of this disclosure, particularly, EN 22, EN 26, and EN 28, on K562 cells were assessed by cell viability analysis in accordance with procedures described above.

[5] = White blood cell counts, liver or kidney function of treated animals; conditions: EN 22 25 or 50 mg/Kg, FIG. 3
Procedure: as §7
After treatment, mice were sacrificed and their white blood cells (WBC) counts were measured. Tumor burdens were determined by the total volume of all the tumor nodules with diameter greater than 3 mm.
as §8

HEL cells [6] = assay: Megakaryocyte formation, morphology by Liu's staining, HEL; format: cell-based, human; conditions: 10 μM, 5 days, FIG. 7
Procedure: (§3) Cells were transferred to a glass coverslide and covered with solution A (0.5 g of methylene blue and 1.7 g of Eosin yellow dissolved in 1,000 ml of ethanol). After 45 seconds, solution B (1.3 g of azure, 1.4 g of methylene blue, 23.38 g of Na2HPO4, 6.5 g of KH2PO4, dissolved in 1,000 ml of distilled water) was added in the proportion of 2 parts of B to 1 part of A. Mixed the solutions well by blowing the surface. The slide was left standing for 90 seconds and then washed off the staining solution rapidly by running water. The morphology of stained cells was then examined by observation under microscope.
(§4) Megarkaryocytopoiesis is a process by which bone marrow progenitor cells develop into mature megakaryocytes, which in turn produce platelets required for normal hemostasis.

[7] = system: stat3 and phosphorylated stat3; assay: Immunoblot of stat3 and phosphorylated stat3 in HEL cells; format: cell-based, human; conditions: compared with control, FIG. 9
Procedure: (§5) Cultured cells were lysed by use of well known lysing buffer, and total amount of proteins were determined by Bradford method. The extracted raw proteins (about 50-100 μg) were loaded to […] sodium dodecyl sulfate polyacrylamide gel, and proteins therein were separated by electrophoresis. The separated proteins were then transferred to nitrocellulose membrane and non-specific binding was removed by TBST buffer (0.8% NaCl, 0.02% KCl, 25 mM Tris-HCl/pH 8.0 and 0.1% Tween-20) containing 4% skim milk. Antibodies including p-Jak2, Jak2, p-stat3-2, stat3, p-stat5, stat5, and GAPDH (purchased from Transduction Laboratories, Lexington, Ky., USA), were respectively dissolved in TBST buffer containing 2% skim milk and incubated with the separated protein bands at 4° C. for at least over night; followed by incubation with horseradish conjugated secondary antibodies at room temperature for about 30 min, and then detected by ECL chemiluminesance detection kit (Amersham Pharmacia Biotech, US).
(§6) The induction of K562 cells or HEL cells to form megakaryocytes was further investigated by measuring the expressed level of its regulatory proteins such as, stat3 and phosphorylated stat3.

[8] = system: stat3 and phosphorylated stat3; assay: Immunoblot of stat3 and phosphorylated stat3 in K562 cells; format: cell-based, human; conditions: compared with control, FIG. 9
Procedure: as §5, §6

HEL cells [9] = assay: STAT3 RNAi assay, megakaryocytic differentiation after Stat3 knockdown; format: cell-based, human; conditions: Stat3 small interference RNA, FIG. 10
From the text: The murine stat3 target sequence from positions 134 to 158 (5′-TGGCCCAATGGAATCAGCTACAGCA-3′ (SEQ ID NO: 1)) was selected for the preparation of stat3 siRNA (5′-UGGCCCAAUGGAAUCAGCUACAGCA-3′ (SEQ ID NO: 2)). Scrambled RNAs were employed as a negative control and were synthesized by PCR-derived siRNA expression cassettes according to the manufacturer's instructions and were then cloned into pSEC™ hygro plasmid (Ambion).
[…] HEL cells were transfected with the plasmids (i.e., plasmids containing the nucleic acid for the stat3 siRNA or scramble RNAs) described above with the aid of the lipofectamine 2000 (Invitrogen, Carisbad, Calif. USA). Specifically, 5 μg pSEC™ hygro plasmid contained murine stat3 siNAs and 9 μl lipofectamine 2000 were allowed to form complexes in a period of 25 min at room temperature in antibiotic-free DMEM medium. The complexes were then added to HEL cells maintained and cultured in 6-well dishes and further incubated for another 24 hrs. For the selection of cells with high expression rate of siRNA, stable clones of murine stat3 siRNA expressed cells and negative control siRNA (i.e., scrambled RNA) were selected by use of 500 μg/ml hygromycin contained medium, and the selected clones were maintained in 250 ? μg/ml hygromycin contained medium. […]

K562 cells = assay: Megakaryocyte formation, morphology by Liu's staining, K562; format: cell-based, human; conditions: 10 μM, 9 days, FIG. 6
Procedure: as §3, §4

[10] = system: human erythroleukemia (HEL) cells; assay: In vitro growth inhibition of HEL cells; format: cell-based
Procedure: as §1, §2

normal bone marrow cells = assay: Induction and proliferation of megakaryocytes from normal bone marrow cells; format: cell-based; conditions: 1.25 μM, FIG. 12
[11] = system: CD61 and CD235a in HEL cells; assay: Flow cytometric analysis of CD61 and CD235a expression; format: cell-based, human; conditions: 5 μM
From the text: The induction of megakaryocytic differentiation may also be confirmed by the measurement of the differentiation markers CD61 and CD235a expressed on the erythrocyte membrane during the differentiation stage.

HEL cells [12] = assay: Cell cycle analysis by flow cytometry; format: cell-based, human; conditions: FIG. 8
Procedure: Cultured cells with or without pre-treatment of the compounds of this invention (i.e., the compound of formula (I) or (II)) were harvested from the cultured media and fixed by incuating with 75% iced cold ethanol at 4° C. for at least over night. The fixed cells were then warmed up to room temperature and treated with RNAase A for about 30 min. Precipitated cells were collected by centrifugation and re-suspended in a buffer solution containing propidium iodine (20 μg/ml) before being subject to flow cytometry analysis, where cell numbers at respective cell cycles were determined.

With `CC1C(O)CCC2C1(C)CCC1C2(C)CCC2(C)C3CC(C)(C)CCC3(C)CCC12C` (stereo not drawn) [EN 22, 3β-Friedelinol] the body weight loss [1] was “free from the “weight lost” problem”, the “tumor size (growth of tumor)” value ([2]; EN 22 orally, 20 and 50 mg/Kg) was “able to suppress the growth of the tumor in a dose dependent manner” and the “Inhibition (%)” value ([3]; 1 μM, 24 hrs) was 51.98%. For the same compound, the “Inhibition (%)” value ([3]; 1 μM, 48 hrs) was 41.42%, the “Inhibition (%)” value ([3]; 10 μM, 24 hrs) was 58.03% and the “Inhibition (%)” value ([3]; 10 μM, 48 hrs) was 58.61%. For the same compound, the “ex vivo growth of esophageal cancerous cells inhibited” value ([3]; about 1 μM) was “about 50%”, the “ex vivo growth of esophageal cancerous cells inhibited” value ([3]; about 10 μM) was “about 60%” and the “Inhibition (%)” value ([4]; 48 hrs) was 39.32%. The “Inhibition (%)” value ([4]; 72 hrs) was 45.38%, the “ex vivo growth of CML cells suppressed” value [4] was “about 45%” and the “white blood cell (WBC) counts” value [5] was “did not affect the number of WBC”.
With `CC1(C)CC[C@]2(C)CC=C3[C@]4(C)CC[C@H]5C(C)(C)[C@@H](O)CC[C@]5(C)[C@H]4CC[C@@]3(C)[C@@H]2C1` [EN 24, 3β-Taraxerol] the “Inhibition (%)” value ([3]; 1 μM, 24 hrs) was 49.15%, the “Inhibition (%)” value ([3]; 1 μM, 48 hrs) was 43.47% and the “Inhibition (%)” value ([3]; 10 μM, 24 hrs) was 63.99%. For the same compound, the “Inhibition (%)” value ([3]; 10 μM, 48 hrs) was 57.10%.
With `CC1C(O)CCC2C1(C)CCC1C2(C)CCC2(C)C3CC(C)(C)CCC3(C)CCC12C` (stereo not drawn) [EN 25, 3α-Friedelinol] the “Inhibition (%)” value ([3]; 1 μM, 24 hrs) was 49.45%, the “Inhibition (%)” value ([3]; 1 μM, 48 hrs) was 39.99% and the “Inhibition (%)” value ([3]; 10 μM, 24 hrs) was 61.74%. The “Inhibition (%)” value ([3]; 10 μM, 48 hrs) was 62.55%, the “ex vivo growth of esophageal cancerous cells inhibited” value ([3]; about 1 μM) was “about 50%” and the “ex vivo growth of esophageal cancerous cells inhibited” value ([3]; about 10 μM) was “about 60%”.
For `CC=C(C)C(=O)OC1C(OC(C)=O)C(C)=CC23OC2(CC(C)C3OC(C)=O)C(=O)C(C)C(OC(C)=O)C2C1C2(C)C` (centres unmarked) [EN 26, 3,7,12-O-Triacetyl-8-O-tigioylingol], the “Inhibition (%)” value ([4]; 24 hrs) was 12.74%, the “Inhibition (%)” value ([4]; 48 hrs) was 30.38% and the “Inhibition (%)” value ([4]; 72 hrs) was 42.35%. For the same compound, the “ex vivo growth of CML cells suppressed” value [4] was “about 40%”.
For `CC=C(C)C(=O)OC1C(C)=CC23OC2(CC(C)C3OC(C)=O)C(=O)C(C)C(OC(C)=O)C2C(C1OC)C2(C)C` (centres unmarked) [EN 28, 3,12-O-Diacetyl-7-O-angeloyl-8-methoxyingol], the “morphology change, differentiation into megakaryocytes” value (HEL cells [6]) was “induces the differentiation of HEL cells into megakaryocytes”, the “level of phosphorylated stat-3” value [7] was “increased” and the “level of stat3” value [7] was “increased”. The “level of phosphorylated stat-3” value [8] was “increased”, the “level of stat3” value [8] was “increased” and the “induction of megakaryocytic differentiation after knockdown of Stat3” value (HEL cells [9]) was “partially reversed”. The “morphology change, formation of megakaryocytes” value (K562 cells) was “cells started to fuse and form megakaryocytes”, the “in vitro growth of HEL cells inhibited” value ([10]; 5 μM) was “about 55%” and the “in vitro growth of HEL cells inhibited” value ([10]; 10 μM) was “about 60%”. The “in vitro growth of HEL cells inhibited” value ([10]; about 2.5 μM) was “about 40%”, the “proliferation and differentiation into megakaryocytes” value (normal bone marrow cells) was “capable of inducing the proliferation and subsequently, the differentiation of the proliferated normal bone marrow cells into megakaryocytes” and the “effect of Stat3 knockdown on CD61 and CD235a changes” value ([11]; HEL cells with siStat3, FIG. 11) was “not antagonized”. The CD61 expression ([11]; HEL cells, FIG. 11) was “up-regulation”, the CD235a expression ([11]; HEL cells, FIG. 11) was “down-regulation” and the cell cycle analysis (HEL cells [12]) was “capable of inducing the generation of new population of cells”. For the same compound, the “Inhibition (%)” value ([4]; 48 hrs) was 44.85% and the “ex vivo growth of CML cells suppressed” value [4] was “about 50%”.
For `N.N.[Cl][Pt][Cl]` [cisplatin, reference compound], the “tumor size (growth of tumor)” value ([2]; cisplatin 2 mg/Kg intraperitoneally) was “capable of suppressing the growth of tumor during the entire treatment period”.
